Assay results from publication PMC10011747, “Targeting androgen receptor and the variants by an orally bioavailable Proteolysis Targeting Chimeras compound in castration resistant prostate cancer” (eBioMedicine, 2023).
Where two headings read alike, the source gives them in different places.

Experiments:
full-length AR [1] = assay: AR degradation by western blot in prostate cancer cell lines; assay type: cell-based, human; details: for sustainability of AR and AR-V(ΔLBD) degradation after drug washout: 10 μM for 24 h then washout, LNCaP, CWR22Rv1, VCaP; for AR degradation: CWR22Rv1 cells (Table S1); for DC50: 24 h treatment; for AR Dmax CWR22Rv1 / AR Dmax VCaP: maximum degradation at 20 μM
Method: (§1) To obtain total lysates, cells were lysed in RIPA buffer (50 mM Tris–HCl pH 8.0, 150 mM NaCl, 1% NP-40, 0.5% Na-deoxycholate, 0.5% SDS plus protease inhibitors). The lysates were resolved by SDS-polyacrylamide gel electrophoresis, and the protein expression was analyzed by western blotting using primary antibodies against AR (Millipore Cat# 06-680, RRID:AB_310214), AR-V7 (RevMAb Biosciences Cat# 31-1109-00, RRID:AB_2716436), GAPDH (Cell Signaling Technology Cat# 2118, RRID:AB_561053) and Actin (Sigma–Aldrich Cat# A5441, RRID:AB_476744). pLenti4/TO/Flag-AR or pLenti4/TO/Flag-TC-AR plasmid was co-transfected with HA-ubiquitin plasmid into 293T cells. 24 h after transfection, the cells were treated with 10 μM of the PROTAC compounds for 16 h, followed by 4-h treatment of 5 μM MG132. The cells were lysed with lysis buffer (50 mM Tris–HCl pH7.5, 150 mM NaCl, 0. 5% Triton X-100, 10% glycerol, 1 mM EDTA plus protease inhibitors) containing 1 ng/mL of N-ethylmaleimide, followed by immunoprecipitation with anti-Flag M2 (Sigma–Aldrich Cat# F3165, RRID:AB_259529) antibody. The ubiquitinated AR was then detected by western blotting using anti-HA (Sigma–Aldrich Cat# H3663, RRID:AB_262051) antibody.
(§2) Fig. 1 PROTAC-based AR degraders ITRI-90, ITRI-125 and ITRI-126 reduce AR and AR-V7 proteins in prostate cancer cell lines. (a) Chemical structure of the PROTAC AR degraders. (b) Representative western blots of AR protein levels in LNCaP, CWR22Rv1 and VCaP cells treated with the PROTAC degraders for 24 h. AR was detected by N-terminal antibody which also detects C-terminal truncated AR-V(ΔLBD) in CWR22Rv1 cells. AR-V7 specific antibody was used for AR-V7 detection. 4%–12% gradient gel was used to separate different species of AR-V(ΔLBD) near 75 kDa in CWR22Rv1 cell lysates. DC50 indicating the concentration required to achieve 50% degradation, was calculated based on normalized full-length AR and AR-V7 band intensity. Dmax is the maximum degradation achieved at 20 μM compound treatment. TEXT PRINTED IN THE PICTURE: (a) ITRI-90: AR DC50 (μM) LNCaP: 2.12 ± 0.93; AR DC50 (μM) CWR22Rv1: 5.73 ± 2.28; AR DC50 (μM) VCaP: 8.67 ± 4.87; AR-V7 DC50 (μM) CWR22Rv1: 4.72 ± 2.52; AR-V7 DC50 (μM) VCaP: 0.29 ± 0.15; AR Dmax (%) LNCaP: 88; AR Dmax (%) CWR22Rv1: 98; AR Dmax (%) VCaP: 90; AR-V7 Dmax (%) CWR22Rv1: 100; AR-V7 Dmax (%) VCaP: 63 | (a) ITRI-125: AR DC50 (μM) LNCaP: 6.10 ± 4.43; AR DC50 (μM) CWR22Rv1: 6.64 ± 1.87; AR DC50 (μM) VCaP: 9.05 ± 3.75; AR-V7 DC50 (μM) CWR22Rv1: 1.89 ± 1.06; AR-V7 DC50 (μM) VCaP: 0.52 ± 0.37; AR Dmax (%) LNCaP: 71; AR Dmax (%) CWR22Rv1: 96; AR Dmax (%) VCaP: 85; AR-V7 Dmax (%) CWR22Rv1: 99; AR-V7 Dmax (%) VCaP: 67 | (a) ITRI-126: AR DC50 (μM) LNCaP: 3.41 ± 3.13; AR DC50 (μM) CWR22Rv1: 0.11 ± 0.02; AR DC50 (μM) VCaP: 0.851 ± 0.43; AR-V7 DC50 (μM) CWR22Rv1: 0.011 ± 0.003; AR-V7 DC50 (μM) VCaP: 0.43 ± 0.19; AR Dmax (%) LNCaP: 99; AR Dmax (%) CWR22Rv1: 74; AR Dmax (%) VCaP: 94; AR-V7 Dmax (%) CWR22Rv1: 91; AR-V7 Dmax (%) VCaP: 82

full-length AR [2] = target: T1, full-length AR (Homo sapiens, UniProt P10275, T878A); assay: as above; assay type: cell-based; details: LNCaP cells; for DC50: 24 h treatment; for Dmax at 20 µM: maximum degradation at 20 μM
T1 construct: calculated based on normalized full-length AR and AR-V7 band intensity; endogenous in cells; host or cells: LNCaP, CWR22Rv1, VCaP
T1 sequence (P10275 1-920 T878A): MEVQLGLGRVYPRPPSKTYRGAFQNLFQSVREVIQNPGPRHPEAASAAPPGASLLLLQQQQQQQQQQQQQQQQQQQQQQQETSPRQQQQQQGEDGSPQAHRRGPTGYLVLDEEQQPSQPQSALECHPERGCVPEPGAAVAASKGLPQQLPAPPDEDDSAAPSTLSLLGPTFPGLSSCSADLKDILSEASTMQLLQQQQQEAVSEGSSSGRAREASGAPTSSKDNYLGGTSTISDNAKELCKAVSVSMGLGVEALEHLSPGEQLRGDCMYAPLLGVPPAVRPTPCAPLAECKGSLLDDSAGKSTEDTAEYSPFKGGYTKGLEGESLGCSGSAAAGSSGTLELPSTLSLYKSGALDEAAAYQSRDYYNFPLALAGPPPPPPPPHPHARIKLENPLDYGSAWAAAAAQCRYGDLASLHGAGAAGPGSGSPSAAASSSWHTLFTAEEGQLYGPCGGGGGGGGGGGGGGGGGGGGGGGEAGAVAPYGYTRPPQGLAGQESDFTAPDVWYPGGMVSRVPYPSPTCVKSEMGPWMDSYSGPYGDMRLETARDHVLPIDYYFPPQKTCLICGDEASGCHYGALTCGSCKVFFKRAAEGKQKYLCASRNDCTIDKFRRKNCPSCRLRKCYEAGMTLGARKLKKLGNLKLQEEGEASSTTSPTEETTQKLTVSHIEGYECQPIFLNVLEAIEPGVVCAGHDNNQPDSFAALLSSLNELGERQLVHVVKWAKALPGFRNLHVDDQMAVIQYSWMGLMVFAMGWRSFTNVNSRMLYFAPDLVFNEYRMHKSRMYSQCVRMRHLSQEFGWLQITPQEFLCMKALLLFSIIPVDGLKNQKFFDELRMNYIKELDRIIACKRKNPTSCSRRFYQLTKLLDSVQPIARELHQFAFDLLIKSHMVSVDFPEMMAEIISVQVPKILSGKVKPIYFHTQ
Method: as §1, §2

[3] = CWR22Rv1 cells, read-out: AR DC50 CWR22Rv1
[4] = VCaP cells, read-out: AR DC50 VCaP

Compound	sustainability of AR and AR-V(ΔLBD) degradation after drug washout (full-length AR [1])	AR degradation (full-length AR [1]) [%]	DC50 (full-length AR [1]; [3]) [µM]	AR Dmax CWR22Rv1 (full-length AR [1]; CWR22Rv1 cells) [%]	DC50 (full-length AR [1]; [4]) [µM]	AR Dmax VCaP (full-length AR [1]; VCaP cells) [%]	DC50 (full-length AR [2]) [µM]	Dmax at 20 µM (full-length AR [2]) [%]
Cc1ncsc1-c1ccc(CNC(=O)[C@@H]2C[C@H](O)CN2C(=O)[C@@H](NC(=O)COCCCCOc2ccc(C3CCN(C4=Nn5c(nnc5C(F)(F)F)CC4)CC3)cc2)C(C)(C)C)cc1 [ITRI-90, (2S,4S)-1-((S)-3,3-dimethyl-2-(2-(4-(4-(1-(3-(trifluoromethyl)-7,8-dihydro-[1,2,4]triazolo[4,3-b]pyridazin-6-yl)piperidin-4-yl)phenoxy)butoxy)acetamido)butanoyl)-4-hydroxy-N-(4-(4-methylthiazol-5-yl)benzyl)pyrrolidine-2-carboxamide]	sustain low protein levels up to 24 h after drug washout	98.28	5.73 ± 2.28	98	8.67 ± 4.87	90	2.12 ± 0.93	88
Cc1ncsc1-c1ccc(CNC(=O)[C@@H]2C[C@H](O)CN2C(=O)[C@@H](NC(=O)COCCCCCCOc2ccc(C3CCN(C4=Nn5c(nnc5C(F)(F)F)CC4)CC3)cc2)C(C)(C)C)cc1 [ITRI-125, (2S,4S)-1-((S)-3,3-dimethyl-2-(2-(6-(4-(1-(3-(trifluoromethyl)-7,8-dihydro-[1,2,4]triazolo[4,3-b]pyridazin-6-yl)piperidin-4-yl)phenoxy)hexyloxy)acetamido)butanoyl)-4-hydroxy-N-(4-(4-methylthiazol-5-yl)benzyl)pyrrolidine-2-carboxamide]	lost the degrading effects on both full-length and truncated AR within 8 h post drug removal	92.53	6.64 ± 1.87	96	9.05 ± 3.75	85	6.1 ± 4.43	71
O=C1CCC(N2Cc3c(NC(=O)COCCCCOc4ccc(C5CCN(C6=Nn7c(nnc7C(F)(F)F)CC6)CC5)cc4)cccc3C2=O)C(=O)N1 (centres unmarked) [ITRI-126, N-(2-(2,6-dioxopiperidin-3-yl)-1-oxoisoindolin-4-yl)-2-(4-(4-(1-(3-(trifluoromethyl)-7,8-dihydro-[1,2,4]triazolo[4,3-b]pyridazin-6-yl)piperidin-4-yl)phenoxy)butoxy)acetamide]	sustain low protein levels up to 24 h after drug washout		0.11 ± 0.02	74	0.851 ± 0.43	94	3.41 ± 3.13	99
